In US20230011571A1, “SMALL MOLECULE FURIN INHIBITORS FOR TREATING INFECTIOUS DISEASES” (BP Asset V, Inc., priority 2019, published 2023):

How the values were obtained:
Type in all cases: cell-based
Marburg virus (MARV) = experiment: organism not typed; settings: for inhibition at 1 µM: Vero, 72 h, read-out: Percent viral inhibition MARV
dengue virus (DENV) = experiment: microbe, parasite or virus in culture; settings: for inhibition at 1 µM: Dengue virus, Vero, 120 h, read-out: Percent viral inhibition DENY
[1] = tested on: Chikungunya virus (CHIKV); experiment: microbe, parasite or virus in culture; settings: for inhibition at 1 µM: Chikungunya virus, Vero, 48 h, read-out: Percent viral inhibition CHKV

| SMILES | inhibition at 1 µM (Marburg virus (MARV)) | inhibition at 1 µM (dengue virus (DENV)) | inhibition at 1 µM [1] | Percent viral inhibition MARV (Marburg virus (MARV); 1 µM) | Percent viral inhibition DENY (dengue virus (DENV); 1 µM) | Percent viral inhibition CHKV ([1]; 1 µM) |
| --- | --- | --- | --- | --- | --- | --- |
| O=C(O)CC1CCN(Cc2cc(Oc3cnc(N4CCN(CCC5(O)CC5)CC4)nc3)nc(-c3cc(Cl)cc(Cl)c3)c2)CC1 [Example 278, 2-(1-((2-(3,5-dichlorophenyl)-6-((2-(4-(2-(1-hydroxycyclopropyl)ethyl)piperazin-1-yl)pyrimidin-5-yl)oxy)pyridin-4-yl)methyl)piperidin-4-yl)acetic acid] | 81.7% | 45.5% | 45.6% | – | – | – |
| CC(C)(O)CCN1CCN(c2ncc(Oc3cc(CN4CCC(CC(=O)O)CC4)cc(-c4cc(Cl)cc(Cl)c4)n3)cn2)CC1 [Example 279, 2-(1-((2-(3,5-dichlorophenyl)-6-((2-(4-(3-hydroxy-3-methylbutyl)piperazin-1-yl)pyrimidin-5-yl)oxy)pyridin-4-yl)methyl)piperidin-4-yl)acetic acid] | 18.8% | 27.5% | 37.8% | – | – | – |
| CC(=O)NCC1CCN(Cc2cc(Oc3cnc(N4CCN(C(C)CC(=O)O)CC4)nc3)nc(-c3cc(Cl)cc(Cl)c3)c2)CC1 (stereo not drawn) [Example 282, 3-(4-(5-((4-((4-(acetamidomethyl)piperidin-1-yl)methyl)-6-(3,5-dichlorophenyl)pyridin-2-yl)oxy)pyrimidin-2-yl)piperazin-1-yl)butanoic acid] | 63.7% | 21.8% | 8.2% | – | – | – |
| CC(=O)NCC1CCN(Cc2cc(Oc3cnc(N4CCN(CC(C)C(=O)O)CC4)nc3)nc(-c3cc(Cl)cc(Cl)c3)c2)CC1 (stereo not drawn) [Example 283, 3-(4-(5-((4-((4-(acetamidomethyl)piperidin-1-yl)methyl)-6-(3,5-dichlorophenyl)pyridin-2-yl)oxy)pyrimidin-2-yl)piperazin-1-yl)-2-methylpropanoic acid] | 49.6% | 43.8% | 29.8% | – | – | – |
| CC(=O)NCC1CCN(Cc2cc(Oc3cnc(N4CCN(CCS(C)(=O)=O)CC4)nc3)nc(-c3cc(Cl)cc(Cl)c3)c2)CC1 [Example 285, N-((1-((2-(3,5-dichlorophenyl)-6-((2-(4-(2-(methylsulfonyl)ethyl)piperazin-1-yl)pyrimidin-5-yl)oxy)pyridin-4-yl)methyl)piperidin-4-yl)methyl)acetamide] | 80.4% | 22.9% | 35.3% | – | – | – |
| CC(=O)NCC1CCN(Cc2cc(Oc3cnc(N4CCN(CCS(N)(=O)=O)CC4)nc3)nc(-c3cc(Cl)cc(Cl)c3)c2)CC1 [Example 286, N-((1-((2-(3,5-dichlorophenyl)-6-((2-(4-(2-sulfamoylethyl)piperazin-1-yl)pyrimidin-5-yl)oxy)pyridin-4-yl)methyl)piperidin-4-yl)methyl)acetamide] | 19.2% | 0% | 0% | – | – | – |
| CCC(CN1CCN(c2ccc(Oc3cc(CN4CCC(CNC(C)=O)CC4)cc(-c4cc(Cl)cc(Cl)c4)n3)cn2)CC1)C(=O)O (stereo not drawn) [Example 288, 2-((4-(5-((4-((4-(acetamidomethyl)piperidin-1-yl)methyl)-6-(3,5-dichlorophenyl)pyridin-2-yl)oxy)pyridin-2-yl)piperazin-1-yl)methyl)butanoic acid] | 49.1% | 52.2% | 28.2% | – | – | – |
| CC(=O)NCC1CCN(Cc2cc(Oc3ccc(N4CCN(CCS(N)(=O)=O)CC4)nc3)nc(-c3cc(Cl)cc(Cl)c3)c2)CC1 [Example 289, N-((1-((2-(3,5-dichlorophenyl)-6-((6-(4-(2-sulfamoylethyl)piperazin-1-yl)pyridin-3-yl)oxy)pyridin-4-yl)methyl)piperidin-4-yl)methyl)acetamide] | – | – | – | 40.64% | 43.48% | 28.95% |
| CNC(=O)NCC1CCN(Cc2cc(Oc3ccc(N4CCN(CCS(C)(=O)=O)CC4)nc3)nc(-c3cc(Cl)cc(Cl)c3)c2)CC1 [Example 290, 1-((1-((2-(3,5-dichlorophenyl)-6-((6-(4-(2-(methylsulfonyl)ethyl)piperazin-1-yl)pyridin-3-yl)oxy)pyridin-4-yl)methyl)piperidin-4-yl)methyl)-3-methylurea] | 50.6% | 18.9% | 0% | – | – | – |
| CNC(=O)NCC1CCN(Cc2cc(Oc3cnc(N4CCN(CC(C)C(=O)O)CC4)nc3)cc(-c3cc(Cl)cc(Cl)c3)c2)CC1 (stereo not drawn) [Example 292, 3-(4-(5-((3′,5′-dichloro-5-((4-((3-methylureido)methyl)piperidin-1-yl)methyl)-[1,1′-biphenyl]-3-yl)oxy)pyrimidin-2-yl)piperazin-1-yl)-2-methylpropanoic acid] | 54.2% | 26% | 15.9% | – | – | – |
| CC(=O)NCC1CCN(Cc2cc(Oc3ccc(N4CCN(CCS(C)(=O)=O)CC4)nc3)cc(-c3cc(Cl)cc(Cl)c3)c2)CC1 [Example 293, N-((1-((3′,5′-dichloro-5-((6-(4-(2-(methylsulfonyl)ethyl)piperazin-1-yl)pyridin-3-yl)oxy)-[1,1′-biphenyl]-3-yl)methyl)piperidin-4-yl)methyl)acetamide] | 0% | 0% | 0% | – | – | – |
| COC(=O)NCC1CCN(Cc2cc(Oc3cnc(N4CCN(CCC(=O)O)[C@@H](C)C4)nc3)nc(-c3cc(Cl)cc(Cl)c3)c2)CC1 [Example 294, (S)-3-(4-(5-((6-(3,5-dichlorophenyl)-4-((4-(((methoxycarbonyl)amino)methyl)piperidin-1-yl)methyl)pyridin-2-yl)oxy)pyrimidin-2-yl)-2-methyl-piperazin-1-yl)propanoic acid] | 54.2% | 57.7% | 28.7% | – | – | – |
| C[C@@H](O)CN1CCN(c2ncc(Oc3cc(CN4CCC(CC(=O)O)CC4)cc(-c4cc(Cl)cc(Cl)c4)n3)cn2)CC1 [Example 298, (R)-2-(1-((2-(3,5-dichlorophenyl)-6-((2-(4-(2-hydroxypropyl)piperazin-1-yl)pyrimidin-5-yl)oxy)pyridin-4-yl)methyl)piperidin-4-yl)acetic acid] | 55.1% | 57% | 20.7% | – | – | – |
| O=C(O)CC1CCN(Cc2cc(Oc3ccc(N4CCN(CCO)CC4)nc3)nc(-c3cc(Cl)cc(Cl)c3)c2)CC1 [Example 300, 2-(1-((2-(3,5-dichlorophenyl)-6-((6-(4-(2-hydroxyethyl)piperazin-1-yl)pyridin-3-yl)oxy)pyridin-4-yl)methyl)piperidin-4-yl)acetic acid] | 45% | 0% | 18.2% | – | – | – |
| CC(CC1CCN(Cc2cc(Oc3cnc(N4CCN(C[C@@H](C)O)CC4)nc3)nc(-c3cc(Cl)cc(Cl)c3)c2)CC1)C(=O)O (stereo partly drawn) [Example 301, 3-(1-((2-(3,5-dichlorophenyl)-6-((2-(4-((R)-2-hydroxypropyl)piperazin-1-yl)pyrimidin-5-yl)oxy)pyridin-4-yl)methyl)piperidin-4-yl)-2-methylpropanoic acid] | 68.4% | 56.1% | 28.8% | – | – | – |
| CC(=O)NCC1CCN(Cc2cc(Oc3cnc(N4CCN(C[C@@H](C)O)CC4)nc3)nc(-c3cc(Cl)cc(Cl)c3)c2)CC1 [Example 302, (R)-N-((1-((2-(3,5-dichlorophenyl)-6-((2-(4-(2-hydroxypropyl)piperazin-1-yl)pyrimidin-5-yl)oxy)pyridin-4-yl)methyl)piperidin-4-yl)methyl)acetamide] | 56.9% | 26.6% | 39% | – | – | – |
| CC(=O)NCC1CCN(Cc2cc(Oc3cnc(N4CCN(CC(C)(C)O)CC4)nc3)nc(-c3cc(Cl)cc(Cl)c3)c2)CC1 [Example 303, N-((1-((2-(3,5-dichlorophenyl)-6-((2-(4-(2-hydroxy-2-methylpropyl)piperazin-1-yl)pyrimidin-5-yl)oxy)pyridin-4-yl)methyl)piperidin-4-yl)methyl)acetamide] | 49.6% | 34.4% | 33.4% | – | – | – |
| CC(=O)NCC1CCN(Cc2cc(Oc3cnc(N4CCN(CC(O)CF)CC4)nc3)nc(-c3cc(Cl)cc(Cl)c3)c2)CC1 (stereo not drawn) [Example 304, N-((1-((2-(3,5-dichlorophenyl)-6-((2-(4-(3-fluoro-2-hydroxypropyl)piperazin-1-yl)pyrimidin-5-yl)oxy)pyridin-4-yl)methyl)piperidin-4-yl)methyl)acetamide] | 12.4% | 41.8% | 0% | – | – | – |
| O=C(O)CC1CCN(Cc2cc(Oc3cnc(N4CCN(CCO)CC4)nc3)nc(-c3cc(Cl)cc(Cl)c3)c2)CC1 [Example 306, 2-(1-((2-(3,5-dichlorophenyl)-6-((2-(4-(2-hydroxyethyl)piperazin-1-yl)pyrimidin-5-yl)oxy)pyridin-4-yl)methyl)piperidin-4-yl)acetic acid] | 51.1% | 7.27% | 13.6% | – | – | – |
| CNC(=O)OCC1CCN(Cc2cc(Oc3cnc(N4CCN(C[C@@H](C)O)CC4)nc3)nc(-c3cc(Cl)cc(Cl)c3)c2)CC1 [Example 308, (R)-(1-((2-(3,5-dichlorophenyl)-6-((2-(4-(2-hydroxypropyl)piperazin-1-yl)pyrimidin-5-yl)oxy)pyridin-4-yl)methyl)piperidin-4-yl)methylmethylcarbamate] | 23.7% | 0% | 0% | – | – | – |
| CNC(=O)NCC1CCN(Cc2cc(Oc3cnc(N4CCN(C[C@@H](C)O)CC4)nc3)nc(-c3cc(Cl)cc(Cl)c3)c2)CC1 [Example 310, (R)-1-((1-((2-(3,5-dichlorophenyl)-6-((2-(4-(2-hydroxypropyl)piperazin-1-yl)pyrimidin-5-yl)oxy)pyridin-4-yl)methyl)piperidin-4-yl)methyl)-3-methylurea] | 18% | 19.3% | 2.85% | – | – | – |
| COC(=O)NCC1CCN(Cc2cc(Oc3cnc(N4CCN(CCO)CC4)nc3)nc(-c3cc(Cl)cc(Cl)c3)c2)CC1 [Example 311, methyl((1-((2-(3,5-dichlorophenyl)-6-((2-(4-(2-hydroxyethyl)piperazin-1-yl)pyrimidin-5-yl)oxy)pyridin-4-yl)methyl)piperidin-4-yl)methyl)carbamate] | 17.5% | 0% | 8.41% | – | – | – |
